Paper PMC12703733, “Probing Guanidino Pendant or Bridged Groups in Cyclic Antimicrobial Peptides Derived from Temporin L: A Strategy to Improve Efficacy against Gram-Negative Bacteria” (Journal of Medicinal Chemistry, 2025)
Values after ≈ are worked out from the molar mass of the structure shown. Like-named read-outs stand apart in the source and are kept apart here. Bridge positions count the residues as written; N and C are the ends. Square brackets hold non-standard residues; d marks the D form. Peptide text beside a SMILES is read from it. Phe(4-guanidino) = N=C(N)Nc1ccc(C[C@H](N)C(=O)O)cc1

Tests used:
[1] = in vitro; type: in vitro ADME; conditions: isolated enzyme chymotrypsin, pH 7.8
Experimental: Peptide stability was evaluated by modifying previously described procedures. , The assays were performed in human serum and in the presence of proteolytic enzymes such as trypsin and chymotrypsin. For human serum stability, 2 mM peptide stock solutions were prepared in water and mixed with human serum (from male AB plasma, USA origin, sterile-filtered, Merck/Sigma-Aldrich, USA) to obtain a final concentration of 200 μM [human plasma/stock solution (9:1, v/v)]. The mixtures were incubated at 37 ± 1 °C, and 50 μL aliquots were taken at predetermined time intervals (0, 1, 2, 4, 8, and 24 h). Protease activity was quenched by adding 100 μL of acetonitrile (MeCN). The resulting cloudy suspensions were cooled to 4 °C for 30 min and centrifugated at 12,000 rpm for 10 min to remove the serum proteins. Then, the supernatants were analyzed by analytical HPLC (Shimadzu Nexera Liquid Chromatograph LC-30AD) which was equipped with a Phenomenex Kinetex reversed-phase column (C18, 5 μm, 100 Å, 150 mm × 4.6 mm) with a flow rate of 1 mL/min using a gradient of MeCN (0.1% TFA) in water (0.1% TFA), from 10 to 70% over 15 min, and UV detection at 220 nm. For enzyme stability, each peptide peptide (200 μM) was incubated with trypsin (0.5 μM) in PBS 1× (pH 7.2) or with chymotrypsin (0.005 μM) in Tris–HCl (100 mM, pH 7.8). Samples (50 μL) were collected at 0, 1, 2, 4, and 24 h, quenched with 0.5% TFA in water, and analyzed by HPLC under chromatographic conditions as described above. All experiments were conducted in triplicate. The percentage of intact peptides at each time point was determined by integrating the corresponding HPLC peak areas.

[2] = system: E. faecalis ATCC 29212; assay: microbe, parasite or virus in culture; type: cell-based; conditions: ATCC 29212
Outline: (§1)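 Broth MIC determination: cells grown to mid-log phase, diluted to 2 × 10^6 cell/mL in Mueller Hinton, then incubated with compound at 37 °C.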

[3] = system: B. megaterium BM11; assay: microbe, parasite or virus in culture; type: cell-based; conditions: BM11
Outline: as §1

[4] = system: E. coli ATCC 25922; assay: microbe, parasite or virus in culture; type: cell-based; conditions: ATCC 25922
Outline: as §1

[5] = system: E. coli D21; assay: microbe, parasite or virus in culture; type: cell-based; conditions: D21
Outline: as §1

[6] = system: S. epidermidis ATCC 12228; assay: microbe, parasite or virus in culture; type: cell-based; conditions: ATCC 12228
Outline: as §1

[7] = system: S. aureus ATCC 25923; assay: microbe, parasite or virus in culture; type: cell-based; conditions: ATCC 25923
Outline: as §1

[8] = system: P. aeruginosa ATCC 27853; assay: microbe, parasite or virus in culture; type: cell-based; conditions: ATCC 27853
Outline: as §1

[9] = system: S. agalactiae ATCC 27591; assay: microbe, parasite or virus in culture; type: cell-based; conditions: ATCC 27591
Outline: as §1

[10] = system: A. baumannii ATCC 19606; assay: microbe, parasite or virus in culture; type: cell-based; conditions: ATCC 19606
Outline: as §1

[11] = system: S. aureus ATCC 25923; type: cell-based
Experimental: The ability of peptides to alter the bacterial membrane permeability of planktonic cells of S. aureus ATCC 25923 and P. aeruginosa ATCC 27853 was determined by the Sytox Green assay. Approximately 1 × 10^6 cells in 100 μL of PBS were combined with 1 μM Sytox Green in the dark for 5 min. The fluorescence intensity was monitored using a microplate reader (Infinite M200, Tecan), with excitation and emission at λ = 485 and 535 nm, respectively. Peptides were added (time = 0) at three different concentrations (i.e., 3.12, 6.25, and 12.5 μM). Increase in the fluorescence intensity is due to the binding of the dye to intracellular nucleic acids. Controls consisted of cells that were not exposed to the peptides. The values correspond to one representative experiment out of three independent experiments.

[12] = system: human keratinocytes (HaCaT cells); type: cell-based; conditions: human, 24 h
Outline: (§2)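 Cells were plated at about 4 × 10^4/well in 2% FBS, then exposed to peptide at 100–3.12 μM in serum-free medium for 2 h or 24 h. Viability was measured by MTT reduction (0.5 mg/mL, 4 h, absorbance 570 nm) relative to untreated cells, as the mean ± SEM of three experiments.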

[13] = type: cell-based, human; conditions: human
Outline: as §2

[14] = circular dichroism; conditions: water; pH ns; 25 °C; 150 uM
[15] = type: cell-based; conditions: Cell viability (%)
Experimental: For the evaluation of peptides’ cytotoxicity, the human immortalized keratinocytes (HaCaT cells), purchased from AddexBio (San Diego, CA, USA), and BEAS-2B were used. HaCaT cells were cultured in Dulbecco’s modified Eagle’s medium supplemented with 4 mM glutamine (DMEM), 10% heat-inactivated fetal bovine serum (FBS), and 0.1 mg/mL of penicillin and streptomycin, at 37 °C and 5% CO2. BEAS-2B cells were cultured in RPMI, supplemented with 2 mM glutamine (DMEM), 10% heat-inactivated fetal bovine serum (FBS), 1 mM sodium pyruvate, and 0.1 mg/mL of penicillin and streptomycin, at 37 °C and 5% CO2. Cytotoxicity was tested in vitro using a colorimetric assay that relies on the intracellular reduction of the yellow 3-(4,5-dimethylthiazol-2-yl)-2,5-diphenyltetrazolium bromide salt (MTT) by mitochondrial dehydrogenases of metabolically active cells in formazan crystals (purple). About 4 × 10^4 HaCaT and BEAS-2B cells, suspended in DMEM supplemented with 2% FBS, were plated in triplicate wells of a 96-well microtiter plate. The plate was incubated overnight at 37 °C and 5% CO2. Then, the cells were treated with different concentrations of the peptide (from 100 to 3.12 μM) in a fresh serum-free medium for 2 h and for a longer time (24 h). Following peptide treatment, the medium was removed, and MTT (0.5 mg/mL) solution in Hank’s buffer (136 mM NaCl, 4.2 mM Na2HPO4, 4.4 mM KH2PO4, 5.4 mM KCl, 4.1 mM NaHCO3, pH 7.2, supplemented with 20 mM D-glucose) was added to each well of the plate, that was then incubated for 4 h at 37 °C and 5% CO2. The purple formazan crystals were dissolved using acidified 2-propanol and a microplate reader (Infinite M200; Tecan, Salzburg, Austria) was used to measure the absorbance of each well at 570 nm. The percentage of cell viability was calculated compared to the control, which consisted of cells without any peptide treatment (corresponding to 100% viability) and all data represent the mean of three independent experiments ± SEM.

For CC[C@H](C)[C@H](NC(=O)[C@H](CCCNC(=N)N)NC(=O)[C@H]1CCC(=O)NCCCC[C@H](NC(=O)[C@H](Cc2ccccc2)NC(=O)[C@H](Cc2c[nH]c3ccccc23)NC(=O)[C@@H]2CCCN2C(=O)[C@@H](NC(=O)[C@@H](N)Cc2ccc(NC(=N)N)cc2)C(C)C)C(=O)N[C@@H](CCCCN)C(=O)N[C@@H](Cc2ccccc2)C(=O)N[C@H](CC(C)C)C(=O)N1)C(=O)N[C@@H](CC(C)C)C(N)=O [Peptide 6, (p-guanidino)FVPWF[KKFle]RIL] (H-[Phe(4-guanidino)]VPWFKKF[dL][dE]RIL-NH2; lactam 6-10), which remaining at 4 h, 200 μM [1] is on record?
The remaining at 4 h, 200 μM was ~20%.

What about the MIC [2] of the same compound?
The MIC was 12.5 µM (≈ 22 µg/mL).

What about the MIC [3] of the same compound?
The MIC was 0.78 µM (≈ 1.37 µg/mL).

What about the MIC [4] of the same compound?
The MIC was 6.25 µM (≈ 11 µg/mL).

What about the MIC [5] of the same compound?
The MIC was 3.12 µM (≈ 5.49 µg/mL).

What about the MIC [6] of the same compound?
The MIC was 3.12 µM (≈ 5.49 µg/mL).

And the MIC [7]?
Its MIC is 25 µM (≈ 44 µg/mL).

What about the MIC [8] of the same compound?
Its MIC is 25 µM (≈ 44 µg/mL).

And the MIC [9]?
The MIC was 1.56 µM (≈ 2.75 µg/mL).

And the MIC [10]?
The MIC was 3.12 µM (≈ 5.49 µg/mL).

And the “membrane permeabilization, Sytox Green fluorescence (in words)” value [11]?
Its value is “lower effect”.

What about the CC50 [12] of the same compound?
The CC50 was 59.6 µM.

And the “Cell viability (%)” value ([12]; 50 µM)?
The value was 81 ± 4%.

And the CC50 at 24 h ([13]; CC50)?
Its CC50 at 24 h is > 50 µM.

And the viability at 2 h, 3.12 µM ([13]; Cell viability (%))?
Its viability at 2 h, 3.12 µM is 102%.

And the viability at 2 h, 6.25 µM ([13]; Cell viability (%))?
The viability at 2 h, 6.25 µM was 101%.

And the viability at 2 h, 12.5 µM ([13]; Cell viability (%))?
Its viability at 2 h, 12.5 µM is 101%.

What about the viability at 2 h, 25 µM ([13]; Cell viability (%)) of the same compound?
The viability at 2 h, 25 µM was 101%.

What about the viability at 2 h, 100 µM ([13]; Cell viability (%)) of the same compound?
Its viability at 2 h, 100 µM is 13%.

And the viability at 24 h, 3.12 µM ([13]; Cell viability (%))?
The viability at 24 h, 3.12 µM was 100 ± 2%.

What about the viability at 24 h, 6.25 µM ([13]; Cell viability (%)) of the same compound?
Its viability at 24 h, 6.25 µM is 93 ± 2%.

What about the viability at 24 h, 12.5 µM ([13]; Cell viability (%)) of the same compound?
Its viability at 24 h, 12.5 µM is 86 ± 4%.

What about the viability at 24 h, 25 µM ([13]; Cell viability (%)) of the same compound?
Its viability at 24 h, 25 µM is 86 ± 2%.

And the viability at 24 h, 50 µM ([13]; Cell viability (%))?
Its viability at 24 h, 50 µM is > 70%.

And the viability at 24 h, 100 µM ([13]; Cell viability (%))?
The viability at 24 h, 100 µM was 2 ± 1%.

And the helicity [14]?
Its helicity is 16%.

What about the viability at 2 h, 3.12 µM [15] of the same compound?
The viability at 2 h, 3.12 µM was 111%.

What about the viability at 2 h, 6.25 µM [15] of the same compound?
Its viability at 2 h, 6.25 µM is 119%.

What about the viability at 2 h, 12.5 µM [15] of the same compound?
The viability at 2 h, 12.5 µM was 114%.

And the viability at 2 h, 25 µM [15]?
Its viability at 2 h, 25 µM is 100%.

What about the viability at 2 h, 50 µM [15] of the same compound?
The viability at 2 h, 50 µM was 30%.

And the viability at 24 h, 3.12 µM [15]?
Its viability at 24 h, 3.12 µM is 104%.

And the viability at 24 h, 6.25 µM [15]?
Its viability at 24 h, 6.25 µM is 111%.

What about the viability at 24 h, 12.5 µM [15] of the same compound?
The viability at 24 h, 12.5 µM was 111%.

What about the viability at 24 h, 25 µM [15] of the same compound?
Its viability at 24 h, 25 µM is 107%.

What about the viability at 24 h, 50 µM [15] of the same compound?
The viability at 24 h, 50 µM was 33%.

And the viability at 24 h, 100 µM [15]?
The viability at 24 h, 100 µM was 4%.
